Experimental findings from the Kinase Knowledgebase extract (Sharma et al. 2016) are described below.

In the test the target is EGFR (UniProt P00533).

SMILES strings stand for the structures.

Chain of EGFR (P00533 whole entry, looked up): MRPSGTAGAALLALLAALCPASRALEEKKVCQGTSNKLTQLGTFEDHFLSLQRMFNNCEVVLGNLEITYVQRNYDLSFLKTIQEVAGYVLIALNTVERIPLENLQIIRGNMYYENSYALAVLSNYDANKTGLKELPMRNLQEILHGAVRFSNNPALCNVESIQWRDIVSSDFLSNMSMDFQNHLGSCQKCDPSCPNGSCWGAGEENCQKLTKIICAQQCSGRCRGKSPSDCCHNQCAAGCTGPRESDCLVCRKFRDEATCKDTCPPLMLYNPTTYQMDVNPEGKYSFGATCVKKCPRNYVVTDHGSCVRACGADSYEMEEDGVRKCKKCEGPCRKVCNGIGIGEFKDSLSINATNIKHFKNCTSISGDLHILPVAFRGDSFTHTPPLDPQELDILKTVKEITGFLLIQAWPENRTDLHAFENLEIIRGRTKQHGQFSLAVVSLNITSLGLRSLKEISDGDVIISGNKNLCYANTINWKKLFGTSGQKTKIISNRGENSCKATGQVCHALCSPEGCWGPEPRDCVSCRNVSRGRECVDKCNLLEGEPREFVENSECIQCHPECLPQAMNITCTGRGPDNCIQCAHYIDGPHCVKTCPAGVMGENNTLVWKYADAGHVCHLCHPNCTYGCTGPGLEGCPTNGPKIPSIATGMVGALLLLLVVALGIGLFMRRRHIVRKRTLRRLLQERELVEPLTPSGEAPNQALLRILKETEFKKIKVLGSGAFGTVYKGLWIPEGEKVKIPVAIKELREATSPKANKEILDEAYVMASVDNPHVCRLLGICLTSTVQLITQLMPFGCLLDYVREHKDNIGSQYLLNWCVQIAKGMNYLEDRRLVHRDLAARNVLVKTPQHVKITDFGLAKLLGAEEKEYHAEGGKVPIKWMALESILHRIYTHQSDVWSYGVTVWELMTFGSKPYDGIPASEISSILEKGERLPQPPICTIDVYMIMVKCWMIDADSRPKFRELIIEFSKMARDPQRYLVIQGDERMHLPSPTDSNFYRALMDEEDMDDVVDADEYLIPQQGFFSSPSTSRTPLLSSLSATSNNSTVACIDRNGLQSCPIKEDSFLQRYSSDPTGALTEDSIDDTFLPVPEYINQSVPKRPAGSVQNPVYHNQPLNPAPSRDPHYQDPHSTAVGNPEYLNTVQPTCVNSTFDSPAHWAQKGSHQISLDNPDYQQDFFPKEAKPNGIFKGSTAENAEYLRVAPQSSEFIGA

For `NCCC(=O)N[C@@H](Cc1cc(O)c(O)c(SC[C@H](NC(=O)CC[C@H](N)C(=O)O)C(=O)NCC(=O)O)c1)C(=O)O`, the inhibition stood at 2.2.

In turn, `NCCc1cc(O)c(O)c(Sc2nc3ccccc3[nH]2)c1` came in with an inhibition of 15.1.

Molecule `NCCC(=O)N[C@@H](Cc1cc(O)c(O)c(SC[C@H](N)C(=O)N[C@@H](CCC(=O)O)C(=O)O)c1)C(=O)O` gave an inhibition of 0.

For `NCCc1cc(O)c(O)c(SC[C@H](N)C(=O)O)c1`, the inhibition is 16.3.

The molecule `NCCC(=O)N[C@@H](Cc1cc(O)c(O)c(SC[C@H](N)C(=O)NCC(=O)O)c1)C(=O)O` yielded an inhibition of 0.

Molecule `NCCC(=O)NCCc1cc(O)c(O)c(SC[C@H](NC(=O)CC[C@H](N)C(=O)O)C(=O)NCC(=O)O)c1` came in with an inhibition of 4.9.

`NCCC(=O)NCCc1cc(O)c(O)c(SC[C@H](N)C(=O)O)c1` had an inhibition of 12.1.

`N[C@@H](Cc1cc(O)c(O)c(SC[C@H](N)C(=O)NCC(=O)O)c1)C(=O)O` showed an inhibition of 2.5.

In turn, `N[C@@H](CSc1cc(C[C@H](N)C(=O)O)cc(O)c1O)C(=O)O` registered an inhibition of 2.9.

With `N[C@@H](Cc1cc(O)c(O)c(Sc2nc3ccccc3[nH]2)c1)C(=O)O`, the inhibition is 11.7.

The molecule `NCCc1cc(O)c(O)c(SC[C@H](N)C(=O)NCC(=O)O)c1` came in with an inhibition of 19.6.

On to `NCCC(=O)NCCc1cc(O)c(O)c(SC[C@H](N)C(=O)N[C@@H](CCC(=O)O)C(=O)O)c1`, for which the inhibition worked out at 52.1.

As to `NCCC(=O)NCCc1cc(O)c(O)c(SC[C@H](N)C(=O)NCC(=O)O)c1`, the inhibition stood at 7.9.

In the case of `NCCc1cc(O)c(O)c(SC[C@H](N)C(=O)N[C@@H](CCC(=O)O)C(=O)O)c1`, the inhibition came out at 9.3.

As to `N[C@@H](Cc1cc(O)c(O)c(SC[C@H](N)C(=O)N[C@@H](CCC(=O)O)C(=O)O)c1)C(=O)O`, the inhibition turned out to be 0.

As for `N[C@@H](Cc1cc(O)c(O)c(Sc2nc[nH]n2)c1)C(=O)O`, the inhibition was determined as 17.

In turn, `NCCc1cc(O)c(O)c(Sc2nc[nH]n2)c1` had an inhibition of 15.9.
